Assay results reported in patent publication US8450315B2, “Phosphoinositide 3-kinase inhibitor compounds and methods of use” (Genentech, Inc., priority 2006, dated 2013).

How the values were obtained:
Assay type in all cases: biochemical
[1] = biological target: human PI3K isoform gamma (p110 gamma) (Homo sapiens, UniProt P48736); test: p110 isoform selectivity scintillation proximity assay (SPA), gamma isoform; settings: fold potency over gamma relative to alpha, calculated from IC50 values (SPA)
human PI3K isoform gamma (p110 gamma), sequence (P48736 whole entry, canonical isoform): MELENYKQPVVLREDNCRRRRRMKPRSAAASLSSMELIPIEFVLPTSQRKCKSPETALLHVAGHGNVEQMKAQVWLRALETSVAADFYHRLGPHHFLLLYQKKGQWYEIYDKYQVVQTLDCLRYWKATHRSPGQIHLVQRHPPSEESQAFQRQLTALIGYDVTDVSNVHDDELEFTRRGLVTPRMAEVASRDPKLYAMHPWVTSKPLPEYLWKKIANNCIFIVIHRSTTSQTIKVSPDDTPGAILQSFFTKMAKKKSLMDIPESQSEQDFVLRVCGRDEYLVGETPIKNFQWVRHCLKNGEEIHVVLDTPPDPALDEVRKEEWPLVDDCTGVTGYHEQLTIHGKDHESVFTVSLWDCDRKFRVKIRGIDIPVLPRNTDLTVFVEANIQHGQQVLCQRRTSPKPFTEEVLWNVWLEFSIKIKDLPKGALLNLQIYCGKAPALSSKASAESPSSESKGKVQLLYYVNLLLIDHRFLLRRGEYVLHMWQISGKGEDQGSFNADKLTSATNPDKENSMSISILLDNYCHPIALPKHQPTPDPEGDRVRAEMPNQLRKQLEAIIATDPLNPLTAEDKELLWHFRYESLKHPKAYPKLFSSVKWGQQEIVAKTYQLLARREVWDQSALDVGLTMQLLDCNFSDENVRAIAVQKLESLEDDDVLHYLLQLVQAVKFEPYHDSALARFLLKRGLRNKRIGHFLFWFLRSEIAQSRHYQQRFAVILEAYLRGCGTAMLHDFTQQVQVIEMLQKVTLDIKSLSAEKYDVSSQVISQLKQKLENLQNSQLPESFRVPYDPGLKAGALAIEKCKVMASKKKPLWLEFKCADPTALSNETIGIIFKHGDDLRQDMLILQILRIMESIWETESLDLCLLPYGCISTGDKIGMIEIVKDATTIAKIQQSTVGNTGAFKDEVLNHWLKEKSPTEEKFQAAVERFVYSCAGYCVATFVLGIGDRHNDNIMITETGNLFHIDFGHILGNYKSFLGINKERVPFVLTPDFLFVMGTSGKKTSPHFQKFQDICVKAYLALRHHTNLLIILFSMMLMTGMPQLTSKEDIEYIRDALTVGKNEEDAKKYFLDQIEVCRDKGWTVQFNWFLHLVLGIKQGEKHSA
Method: (§1) Binding of Formula Ia and Ib compounds from Tables 1a and 1b to purified preparations of p110 isoforms alpha, beta, delta, and gamma was measured by a Scintillation Proximity Assay (SPA) to determine binding activity (IC50 μMol) and selectivity of binding of beta, delta, and gamma isoforms relative to alpha (Example 365). These values are expressed in Table 2.
(§2) The ability of Formula Ia and Ib compounds from Tables 1a and 1b to inhibit the lipid kinase activity of purified preparations of human PI3K isoforms alpha, beta, delta, and gamma was determined by a radiometric scintillation proximity assay (SPA, GE Healthcare, Amersham Biosciences). Concentration dependent inhibition at 50% (IC50 μMol) was determined for all four isoforms […] and fold potency over beta, delta, and gamma relative to alpha was calculated for a selection of compounds in Table 2. Each compound has a p110 alpha IC50<1 μMol.

[2] = biological target: human PI3K isoform delta (p110 delta) (Homo sapiens, UniProt O00329); test: p110 isoform selectivity scintillation proximity assay (SPA), delta isoform; settings: fold potency over delta relative to alpha, calculated from IC50 values (SPA)
human PI3K isoform delta (p110 delta), sequence (O00329 whole entry, canonical isoform): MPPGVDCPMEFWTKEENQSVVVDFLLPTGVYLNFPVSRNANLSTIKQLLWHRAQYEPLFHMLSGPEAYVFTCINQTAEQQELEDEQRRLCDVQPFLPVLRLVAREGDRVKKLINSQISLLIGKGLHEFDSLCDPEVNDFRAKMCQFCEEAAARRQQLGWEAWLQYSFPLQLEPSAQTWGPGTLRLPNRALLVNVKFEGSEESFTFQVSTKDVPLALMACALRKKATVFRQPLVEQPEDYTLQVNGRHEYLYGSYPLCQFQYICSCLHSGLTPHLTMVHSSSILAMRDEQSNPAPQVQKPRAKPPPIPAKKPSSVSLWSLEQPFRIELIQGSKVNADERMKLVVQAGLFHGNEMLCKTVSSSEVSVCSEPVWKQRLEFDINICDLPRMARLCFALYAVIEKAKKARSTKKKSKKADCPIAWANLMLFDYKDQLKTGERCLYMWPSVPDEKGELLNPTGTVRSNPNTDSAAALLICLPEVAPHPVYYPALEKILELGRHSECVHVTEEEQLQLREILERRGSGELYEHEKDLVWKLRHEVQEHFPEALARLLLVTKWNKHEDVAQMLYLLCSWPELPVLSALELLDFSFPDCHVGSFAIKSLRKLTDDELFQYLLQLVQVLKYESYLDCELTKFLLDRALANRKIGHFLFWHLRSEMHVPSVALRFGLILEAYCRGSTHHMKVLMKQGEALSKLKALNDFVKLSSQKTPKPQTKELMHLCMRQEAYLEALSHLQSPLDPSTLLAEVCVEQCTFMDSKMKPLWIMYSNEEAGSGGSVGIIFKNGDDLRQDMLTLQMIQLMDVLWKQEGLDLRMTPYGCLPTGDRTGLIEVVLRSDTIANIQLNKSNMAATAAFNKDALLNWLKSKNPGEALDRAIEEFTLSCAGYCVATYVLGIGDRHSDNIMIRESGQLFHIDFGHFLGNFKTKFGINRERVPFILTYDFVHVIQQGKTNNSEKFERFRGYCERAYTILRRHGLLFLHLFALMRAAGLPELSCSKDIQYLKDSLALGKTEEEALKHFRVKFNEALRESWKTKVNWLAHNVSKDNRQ
human PI3K isoform delta (p110 delta), sequence (P27986 whole entry partner, canonical isoform): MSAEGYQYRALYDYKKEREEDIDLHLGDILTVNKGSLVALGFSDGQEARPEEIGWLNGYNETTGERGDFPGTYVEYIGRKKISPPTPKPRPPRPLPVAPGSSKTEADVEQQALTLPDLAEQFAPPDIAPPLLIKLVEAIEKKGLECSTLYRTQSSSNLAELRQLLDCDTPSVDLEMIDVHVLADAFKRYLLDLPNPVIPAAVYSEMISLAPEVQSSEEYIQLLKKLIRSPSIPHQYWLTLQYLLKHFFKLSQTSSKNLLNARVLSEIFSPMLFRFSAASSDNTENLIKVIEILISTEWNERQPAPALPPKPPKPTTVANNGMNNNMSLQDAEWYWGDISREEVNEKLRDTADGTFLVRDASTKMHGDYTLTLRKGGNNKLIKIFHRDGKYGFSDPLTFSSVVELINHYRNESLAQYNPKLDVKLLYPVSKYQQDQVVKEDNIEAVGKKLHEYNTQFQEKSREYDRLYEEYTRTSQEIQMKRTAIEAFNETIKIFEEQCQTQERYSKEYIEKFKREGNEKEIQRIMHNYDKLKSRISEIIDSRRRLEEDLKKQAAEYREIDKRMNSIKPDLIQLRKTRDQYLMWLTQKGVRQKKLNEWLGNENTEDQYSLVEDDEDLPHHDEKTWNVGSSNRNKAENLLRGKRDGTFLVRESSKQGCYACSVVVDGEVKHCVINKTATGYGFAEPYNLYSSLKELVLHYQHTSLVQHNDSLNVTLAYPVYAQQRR
Method: as §1, §2

[3] = biological target: human PI3K isoform beta (p110 beta) (Homo sapiens, UniProt P42338); test: p110 isoform selectivity scintillation proximity assay (SPA), beta isoform; settings: fold potency over beta relative to alpha, calculated from IC50 values (SPA)
human PI3K isoform beta (p110 beta), sequence (P42338 whole entry, canonical isoform): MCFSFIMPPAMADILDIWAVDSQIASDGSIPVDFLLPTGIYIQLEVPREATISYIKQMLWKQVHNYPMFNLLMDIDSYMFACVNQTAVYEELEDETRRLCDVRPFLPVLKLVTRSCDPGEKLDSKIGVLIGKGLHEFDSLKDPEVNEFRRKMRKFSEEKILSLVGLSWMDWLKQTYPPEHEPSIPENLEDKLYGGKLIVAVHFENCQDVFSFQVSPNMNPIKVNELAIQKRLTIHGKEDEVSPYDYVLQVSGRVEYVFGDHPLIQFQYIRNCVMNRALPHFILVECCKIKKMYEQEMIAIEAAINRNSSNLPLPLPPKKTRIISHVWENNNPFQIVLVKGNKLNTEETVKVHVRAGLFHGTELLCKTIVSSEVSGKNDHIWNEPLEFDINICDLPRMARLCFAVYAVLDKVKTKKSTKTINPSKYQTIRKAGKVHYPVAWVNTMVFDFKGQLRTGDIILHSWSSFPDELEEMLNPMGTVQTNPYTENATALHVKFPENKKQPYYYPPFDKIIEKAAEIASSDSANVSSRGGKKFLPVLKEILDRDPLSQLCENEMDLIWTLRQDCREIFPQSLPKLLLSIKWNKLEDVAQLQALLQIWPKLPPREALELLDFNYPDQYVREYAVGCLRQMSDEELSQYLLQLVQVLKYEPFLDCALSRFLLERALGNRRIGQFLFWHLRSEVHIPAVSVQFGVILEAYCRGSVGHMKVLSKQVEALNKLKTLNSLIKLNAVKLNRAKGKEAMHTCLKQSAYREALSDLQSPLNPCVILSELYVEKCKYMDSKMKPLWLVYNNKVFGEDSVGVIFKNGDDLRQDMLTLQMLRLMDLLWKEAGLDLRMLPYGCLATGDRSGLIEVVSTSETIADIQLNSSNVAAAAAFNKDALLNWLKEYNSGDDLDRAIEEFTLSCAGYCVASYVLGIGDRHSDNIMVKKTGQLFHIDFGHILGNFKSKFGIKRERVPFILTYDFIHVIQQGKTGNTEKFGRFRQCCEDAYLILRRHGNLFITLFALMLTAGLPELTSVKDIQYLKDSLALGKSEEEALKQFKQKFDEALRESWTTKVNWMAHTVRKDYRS
human PI3K isoform beta (p110 beta), sequence (P27986 whole entry partner, canonical isoform): as the sequence (P27986 whole entry partner, canonical isoform) above
Method: as §1, §2

Row | SMILES | alpha/gamma [1] | alpha/delta [2] | alpha/beta [3]
1 | CNC(=O)c1cccc(-c2cc3nc(-c4cccc5[nH]ncc45)nc(N4CCOCC4)c3s2)c1 [Compound 101, 3-(2-(1H-indazol-4-yl)-4-morpholinothieno[3,2-d]pyrimidin-6-yl)-N-methylbenzamide] | >10 | <10 | >10
2 | NCC(=O)Nc1cccc(-c2cc3nc(-c4cccc5[nH]ncc45)nc(N4CCOCC4)c3s2)c1 [Compound 137, N-(3-(2-(1H-indazol-4-yl)-4-morpholinothieno[3,2-d]pyrimidin-6-yl)phenyl)-2-aminoacetamide] | <10 | <10 | >10
3 | c1cc(-c2nc(N3CCOCC3)c3sc(-c4cn[nH]c4)cc3n2)c2cn[nH]c2c1 [Compound 203, 2-(1H-indazol-4-yl)-4-morpholino-6-(1H-pyrazol-4-yl)thieno[3,2-d]pyrimidine] | >10 | <10 | <10
4 | c1ccc(-c2cc3nc(-c4cccc5[nH]ncc45)nc(N4CCOCC4)c3o2)cc1 [Compound 233, 2-(1H-indazol-4-yl)-4-morpholino-6-phenylfuro[3,2-d]pyrimidine] | <10 | <10 | >10
5 | OCc1cccc(-c2cc3nc(-c4cccc5[nH]ncc45)nc(N4CCOCC4)c3s2)c1 [Compound 237, (3-(2-(1H-indazol-4-yl)-4-morpholinothieno[3,2-d]pyrimidin-6-yl)phenyl)methanol] | >10 | <10 | >10
6 | CC(=O)Nc1cccc(-c2cc3nc(-c4cccc5[nH]ncc45)nc(N4CCOCC4)c3s2)c1 [Compound 238, N-(3-(2-(1H-indazol-4-yl)-4-morpholinothieno[3,2-d]pyrimidin-6-yl)phenyl)acetamide] | >10 | <10 | >10
7 | c1cc(-c2nc(N3CCOCC3)c3sc(Cn4ccnc4)cc3n2)c2cn[nH]c2c1 [Compound 312, 6-((1H-imidazol-1-yl)methyl)-2-(1H-indazol-4-yl)-4-morpholinothieno[3,2-d]pyrimidine] | >10 | <10 | <10
8 | C[C@H](O)CNC(=O)c1cccc(-c2cc3nc(-c4cccc5[nH]ncc45)nc(N4CCOCC4)c3s2)c1 [Compound 336, 3-(2-(1H-indazol-4-yl)-4-morpholinothieno[3,2-d]pyrimidin-6-yl)-N-((S)-2-hydroxypropyl)benzamide] | >10 | <10 | >10
9 | O=C(O)c1cccc(-c2cc3nc(-c4cccc5[nH]ncc45)nc(N4CCOCC4)c3s2)c1 [Compound 338, 3-(2-(1H-indazol-4-yl)-4-morpholinothieno[3,2-d]pyrimidin-6-yl)benzoic acid] | >10 | <10 | >10
10 | Cc1c(-c2cccc(S(C)(=O)=O)c2)sc2c(N3CCOCC3)nc(-c3cccc4[nH]ncc34)nc12 [Compound 360, 2-(1H-indazol-4-yl)-7-methyl-6-(3-(methylsulfonyl)phenyl)-4-morpholinothieno[3,2-d]pyrimidine] | >10 | >10 | >10
11 | COc1ccc(NCc2cc3nc(-c4cccc5[nH]ncc45)nc(N4CCOCC4)c3s2)cn1 [Compound 368, N-((2-(1H-indazol-4-yl)-4-morpholinothieno[3,2-d]pyrimidin-6-yl)methyl)-6-methoxypyridin-3-amine] | >10 | <10 | <10
12 | CC(C)(NC(=O)c1ccccc1)c1cc2nc(-c3cccc4[nH]ncc34)nc(N3CCOCC3)c2s1 [Compound 388, N-(2-(2-(1H-indazol-4-yl)-4-morpholinothieno[3,2-d]pyrimidin-6-yl)propan-2-yl)benzamide] | >10 | <10 | >10
13 | CN(Cc1cc2nc(-c3cccc4[nH]ncc34)nc(N3CCOCC3)c2s1)C(=O)c1ccccc1 [Compound 390, N-((2-(1H-indazol-4-yl)-4-morpholinothieno[3,2-d]pyrimidin-6-yl)methyl)-N-methylbenzamide] | <10 | <10 | <10

The remaining lines, values ahead:

Row | alpha/gamma [1] | alpha/delta [2] | alpha/beta [3] | SMILES
14 | >10 | <10 | <10 | OC1(c2cc3nc(-c4cccc5[nH]ncc45)nc(N4CCOCC4)c3s2)CCC1 [Compound 133, 1-(2-(1H-indazol-4-yl)-4-morpholinothieno[3,2-d]pyrimidin-6-yl)cyclobutanol]
15 | <10 | <10 | <10 | CCNC(=O)c1cc2nc(-c3cccc4[nH]ncc34)nc(N3CCOCC3)c2s1 [Compound 170, N-ethyl-2-(1H-indazol-4-yl)-4-morpholinothieno[3,2-d]pyrimidine-6-carboxamide]
16 | >10 | <10 | <10 | O=C(NOCC1CC1)c1cc2nc(-c3cccc4[nH]ncc34)nc(N3CCOCC3)c2s1 [Compound 202, N-(cyclopropylmethoxy)-2-(1H-indazol-4-yl)-4-morpholinothieno[3,2-d]pyrimidine-6-carboxamide]
17 | >10 | <10 | <10 | C[C@H](O)CNCc1cc2nc(-c3cccc4[nH]ncc34)nc(N3CCOCC3)c2s1 [Compound 205, (S)-1-((2-(1H-indazol-4-yl)-4-morpholinothieno[3,2-d]pyrimidin-6-yl)methylamino)propan-2-ol]
18 | >10 | <10 | >10 | O=S(=O)(Nc1cccc(O)c1)c1cc2nc(-c3cccc4[nH]ncc34)nc(N3CCOCC3)c2s1 [Compound 208, 6-(3-hydroxyphenylaminosulfonyl)-2-(1H-indazol-4-yl)-4-morpholinothieno[3,2-d]pyrimidine]
19 | >10 | <10 | >10 | O=S(=O)(NCCN1CCCCC1)c1cc2nc(-c3cccc4[nH]ncc34)nc(N3CCOCC3)c2s1 [Compound 218, 6-(2-piperidinylethylaminosulfonyl)-2-(1H-indazol-4-yl)-4-morpholinothieno[3,2-d]pyrimidine]
20 | >10 | <10 | <10 | OCCNc1cc2nc(-c3cccc4[nH]ncc34)nc(N3CCOCC3)c2s1 [Compound 226, 2-(2-(1H-indazol-4-yl)-4-morpholinothieno[3,2-d]pyrimidin-6-ylamino)ethanol]
21 | >10 | <10 | >10 | CC(C)(O)c1cc2nc(-c3cccc4[nH]ncc34)nc(N3CCOCC3)c2s1 [Compound 235, 2-(2-(1H-indazol-4-yl)-4-morpholinothieno[3,2-d]pyrimidin-6-yl)propan-2-ol]
22 | >10 | <10 | <10 | O=C(NCCN1CCCCC1)c1cc2nc(-c3cccc4[nH]ncc34)nc(N3CCOCC3)c2s1 [Compound 257, 2-(1H-indazol-4-yl)-4-morpholino-N-(2-(piperidin-1-yl)ethyl)thieno[3,2-d]pyrimidine-6-carboxamide]
23 | >10 | <10 | <10 | CN(C)C(=O)c1cc2nc(-c3cccc4[nH]ncc34)nc(N3CCOCC3)c2s1 [Compound 263, 2-(1H-indazol-4-yl)-N,N-dimethyl-4-morpholinothieno[3,2-d]pyrimidine-6-carboxamide]
24 | >10 | <10 | >10 | CS(=O)(=O)c1cccc(-c2cc3nc(-c4cccc5[nH]ncc45)nc(N4CCOCC4)c3s2)c1 [Compound 265, 2-(1H-indazol-4-yl)-6-(3-(methylsulfonyl)phenyl)-4-morpholinothieno[3,2-d]pyrimidine]
25 | >10 | <10 | 10 | CN(C)Cc1cc2nc(-c3cccc4[nH]ncc34)nc(N3CCOCC3)c2s1 [Compound 304, (2-(1H-indazol-4-yl)-4-morpholinothieno[3,2-d]pyrimidin-6-yl)-N,N-dimethylmethanamine]
26 | >10 | <10 | <10 | O=C(NCc1cc2nc(-c3cccc4[nH]ncc34)nc(N3CCOCC3)c2s1)N1CCOCC1 [Compound 305, N-((2-(1H-indazol-4-yl)-4-morpholinothieno[3,2-d]pyrimidin-6-yl)methyl)morpholine-4-carboxamide]
27 | >10 | <10 | >10 | COC/C=C/c1cc2nc(-c3cccc4[nH]ncc34)nc(N3CCOCC3)c2s1 [Compound 334]
28 | >10 | <10 | <10 | CS(=O)(=O)N1CCC(C(O)c2cc3nc(-c4cccc5[nH]ncc45)nc(N4CCOCC4)c3s2)CC1 (stereo not drawn) [Compound 353, (2-(1H-indazol-4-yl)-4-morpholinothieno[3,2-d]pyrimidin-6-yl)(4-N-methylsulfonylpiperidin-4-yl)methanol]
